Assay results as given in publication PMC4688006 (Leukemia & lymphoma, 2015).
One block for each compound: values may come before it.

Legend:
patients with AML = details: cited from earlier work; for CR rates: randomized phase III clinical trials
[1] = Decitabine plasma pharmacokinetics; format: in vivo, human; details: for AUC(0-inf) / AUC(0-t) / Cmax: intravenous; for AUC(0-inf): Mean AUCinf (SD); for AUC(0-t): Mean AUCt (SD); for Cmax: Mean Cmax (SD)
[2] = test system: patients with AML and/or MDS; details: cited from earlier work
[3] = Vorinostat serum pharmacokinetics; format: in vivo, human; details: for AUC(0-inf) / AUC(0-t) / Cmax / half-life: human, oral; for AUC(0-inf): Mean AUCinf (SD); for AUC(0-t): Mean AUCt (SD); for Cmax: Mean Cmax (SD); for half-life: Mean t½ (SD)
[4] = Concurrent schedule: decitabine 20 mg/m^2/day (n = 6), Day 1, cycle 1
[5] = Concurrent schedule: decitabine 20 mg/m^2/day (n = 6), Day 5, cycle 1
[6] = Sequential schedule: decitabine 20 mg/m^2/day (n = 3), Day 1, cycle 1
[7] = Sequential schedule: decitabine 20 mg/m^2/day (n = 3), Day 5, cycle 1
[8] = human, 20 mg/m^2/day, Concurrent schedule: decitabine 20 mg/m^2/day (n = 6), Day 1, cycle 1
[9] = human, 20 mg/m^2/day, Concurrent schedule: decitabine 20 mg/m^2/day (n = 6), Day 5, cycle 1
[10] = human, 20 mg/m^2/day, Sequential schedule: decitabine 20 mg/m^2/day (n = 3), Day 1, cycle 1
[11] = human, 20 mg/m^2/day, Sequential schedule: decitabine 20 mg/m^2/day (n = 3), Day 5, cycle 1
[12] = Concurrent schedule, 100 mg bid days 1–21, Day 15 (n = 1)
[13] = 100 mg, Concurrent schedule, 100 mg bid days 1–21, Day 4 (n = 3)
[14] = 100 mg, Concurrent schedule, 100 mg bid days 1–21, Day 15 (n = 1)
[15] = 100 mg, Sequential schedule, 100 mg bid days 6–21 (n = 4), day 9 of cycle 1
[16] = 200 mg, Concurrent schedule, 200 mg bid days 1–21, Day 4 (n = 10)
[17] = 200 mg, Concurrent schedule, 200 mg bid days 1–21, Day 15 (n = 7)
[18] = 200 mg, Concurrent schedule, 200 mg tid days 1–14, Day 4 (n = 7)
[19] = 200 mg, Sequential schedule, 200 mg bid days 6–21 (n = 4), day 9 of cycle 1
[20] = 200 mg, Sequential schedule, 200 mg tid days 6–21 (n = 8), day 9 of cycle 1

SMILES: Nc1ncn([C@@H]2O[C@H](CO)[C@@H](O)[C@H]2O)c(=O)n1 [azacitidine]
CR rates (patients with AML): 9–18%

Mean CL (SD) [1, 4]: 202.8 (153.7) L/h/m^2 | Mean t^1/2 (SD) [1, 4]: 0.36 (0.12) h | Mean CL (SD) [1, 5]: 139.6 (55.1) L/h/m^2 | Mean t^1/2 (SD) [1, 5]: 0.40 (0.17) h | Mean CL (SD) [1, 6]: 254.8 (134.3) L/h/m^2 | Mean t^1/2 (SD) [1, 6]: 0.36 (0.05) h | Mean CL (SD) [1, 7]: 226.2 (121.6) L/h/m^2 | Mean Cmax (SD) [1, 7]: 129.9 (87.1) ng/mL | Mean t^1/2 (SD) [1, 7]: 0.42 (0.18) h | AUC(0-inf) [1, 8]: 152 ng·h/mL | AUC(0-inf) [1, 9]: 170 ng·h/mL | AUC(0-inf) [1, 10]: 105 ng·h/mL | AUC(0-inf) [1, 11]: 111 ng·h/mL | AUC(0-t) [1, 8]: 149 ng·h/mL | AUC(0-t) [1, 9]: 166 ng·h/mL | AUC(0-t) [1, 10]: 102 ng·h/mL | AUC(0-t) [1, 11]: 107 ng·h/mL | Cmax [1, 8]: 193 ng/mL | Cmax [1, 9]: 236 ng/mL | Cmax [1, 10]: 137 ng/mL | half-life ([1]; human, iv, 20 mg/m^2/day): ~0.333 h
SMILES: Nc1ncn([C@H]2C[C@H](O)[C@@H](CO)O2)c(=O)n1 [decitabine, 5-aza-2’-deoxycytidine]
CR rates (patients with AML): 9–18% | overall response rates (ORRs) (patients with AML; single agent, three multicenter trials (two phase II, one phase III)): 25–30% | complete response [CR] rate (patients with AML; single agent, three multicenter trials): 13–25%

SMILES: O=C(CCCCCCC(=O)Nc1ccccc1)NO [vorinostat, suberoylanilide hydroxamic acid]
MTD ([2]; for 14 consecutive days every 21 days): 200 mg bid or 250 mg tid | responses (CR and/or CRi) ([2]; single agent): 4.5–10% | Mean CL/F (SD) ([3]; Concurrent schedule, 100 mg bid days 1–21, Day 4 (n = 3)): 4.35 (1.26) L/min | Mean CL/F (SD) [3, 12]: 2.74 L/min | Mean Cmax (SD) [3, 12]: 226.3 ng/mL | Mean CL/F (SD) ([3]; Concurrent schedule, 200 mg bid days 1–21, Day 4 (n = 10)): 4.02 (1.30) L/min | Mean CL/F (SD) ([3]; Concurrent schedule, 200 mg bid days 1–21, Day 15 (n = 7)): 4.70 (2.45) L/min | Mean CL/F (SD) ([3]; Concurrent schedule, 200 mg tid days 1–14, Day 4 (n = 7)): 2.86 (0.81) L/min | Mean CL/F (SD) ([3]; Sequential schedule, 100 mg bid days 6–21 (n = 4), day 9 of cycle 1): 4.80 (0.79) L/min | Mean CL/F (SD) ([3]; Sequential schedule, 200 mg bid days 6–21 (n = 4), day 9 of cycle 1): 5.57 (5.26) L/min | Mean CL/F (SD) ([3]; Sequential schedule, 200 mg tid days 6–21 (n = 8), day 9 of cycle 1): 5.89 (4.48) L/min | AUC(0-inf) [3, 13]: 407 ng·h/mL | AUC(0-inf) [3, 14]: 609 ng·h/mL | AUC(0-inf) [3, 15]: 352 ng·h/mL | AUC(0-t) [3, 13]: 400 ng·h/mL | AUC(0-t) [3, 14]: 608 ng·h/mL | AUC(0-t) [3, 15]: 276 ng·h/mL | Cmax [3, 13]: 151 ng/mL | Cmax [3, 15]: 117 ng/mL | half-life [3, 13]: 1.04 h | half-life [3, 14]: 0.62 h | AUC(0-inf) [3, 16]: 930 ng·h/mL | AUC(0-inf) [3, 17]: 1010 ng·h/mL | AUC(0-inf) [3, 18]: 1240 ng·h/mL | AUC(0-inf) [3, 19]: 974 ng·h/mL | AUC(0-inf) [3, 20]: 910 ng·h/mL | AUC(0-t) [3, 16]: 734 ng·h/mL | AUC(0-t) [3, 17]: 778 ng·h/mL | AUC(0-t) [3, 18]: 1060 ng·h/mL | AUC(0-t) [3, 19]: 556 ng·h/mL | AUC(0-t) [3, 20]: 743 ng·h/mL | Cmax [3, 16]: 252 ng/mL | Cmax [3, 17]: 246 ng/mL | Cmax [3, 18]: 353 ng/mL | Cmax [3, 19]: 126 ng/mL | Cmax [3, 20]: 263 ng/mL | half-life [3, 17]: 2.34 h | half-life [3, 18]: 2.68 h | half-life [3, 19]: 3.34 h | half-life [3, 20]: 1.65 h
